Target: T1, USP25 (USP25-His6, Boston Biochem E-546) (Homo sapiens, UniProt Q9UHP3)
T1 construct: His6; purchased Boston Biochem E-546
T1 sequence (Q9UHP3 1-1055): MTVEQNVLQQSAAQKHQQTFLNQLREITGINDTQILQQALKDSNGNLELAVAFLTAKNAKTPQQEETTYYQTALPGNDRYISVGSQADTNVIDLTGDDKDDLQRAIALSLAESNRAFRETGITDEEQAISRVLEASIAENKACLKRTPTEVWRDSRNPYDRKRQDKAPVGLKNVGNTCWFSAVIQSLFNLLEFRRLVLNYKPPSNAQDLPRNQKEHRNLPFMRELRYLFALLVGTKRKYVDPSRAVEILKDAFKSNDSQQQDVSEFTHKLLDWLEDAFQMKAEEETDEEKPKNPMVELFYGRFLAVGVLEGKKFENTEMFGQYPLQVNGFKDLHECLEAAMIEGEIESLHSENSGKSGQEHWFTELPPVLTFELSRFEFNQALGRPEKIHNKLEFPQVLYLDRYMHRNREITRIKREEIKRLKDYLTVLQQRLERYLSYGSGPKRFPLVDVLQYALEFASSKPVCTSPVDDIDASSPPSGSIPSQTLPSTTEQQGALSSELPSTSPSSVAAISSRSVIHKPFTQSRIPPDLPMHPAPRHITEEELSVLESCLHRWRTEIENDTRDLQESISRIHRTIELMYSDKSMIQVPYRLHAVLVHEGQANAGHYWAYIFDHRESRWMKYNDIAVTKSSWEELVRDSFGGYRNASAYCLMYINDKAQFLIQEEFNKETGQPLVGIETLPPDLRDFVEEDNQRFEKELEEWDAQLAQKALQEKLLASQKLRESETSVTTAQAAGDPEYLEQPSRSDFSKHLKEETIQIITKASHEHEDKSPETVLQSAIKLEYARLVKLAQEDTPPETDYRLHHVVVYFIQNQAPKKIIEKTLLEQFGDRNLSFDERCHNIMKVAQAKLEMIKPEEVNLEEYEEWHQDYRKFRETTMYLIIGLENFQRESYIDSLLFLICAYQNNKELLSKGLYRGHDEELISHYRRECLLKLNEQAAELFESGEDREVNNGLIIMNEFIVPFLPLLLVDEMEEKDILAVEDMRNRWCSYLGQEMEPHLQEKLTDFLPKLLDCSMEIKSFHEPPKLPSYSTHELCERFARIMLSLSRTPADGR
Assay: Ubiquitin-Rhodamine 110 Assay for USP25 Activity, Example A-2
Type: biochemical
Conditions: Ubiquitin-Rhodamine 110 assay, Example A-2; read-out: USP25 A-2 IC50 range
Procedure, shortened: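 Steps: compound dilutions (top 25 μM, 3-fold, 10 points) were preincubated 30 min with 75 pM USP25-His6; 25 nM Ub-Rh110 substrate was added under initial-velocity conditions; after 45 min at room temperature, 10 mM citric acid stopped the reaction before fluorescence reading.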

| Compound | IC50 [µM] |
| --- | --- |
| CO[C@H]1CN(c2cc(F)c3c(c2)CC[C@@H](NC(=O)c2sc4nc(C)ccc4c2N)C3)C[C@@H]1N [Example 137, 3-amino-N-[(2R)-6-[(3S,4S)-3-amino-4-methoxypyrrolidin-1-yl]-8-fluoro-1,2,3,4-tetrahydronaphthalen-2-yl]-6-methylthieno[2,3-b]pyridine-2-carboxamide] | > 2 |
| CCn1ccc2cc(C(=O)N[C@H]3CCc4cc(N5C[C@H](OC)[C@@H](N)C5)cc(F)c4C3)nnc21 [Example 138, N-[(2S)-6-[(3S,4S)-3-amino-4-methoxypyrrolidin-1-yl]-8-fluoro-1,2,3,4-tetrahydronaphthalen-2-yl]-7-ethyl-7H-pyrrolo[2,3-c]pyridazine-3-carboxamide] | > 2 |
| CCn1ccc2cc(C(=O)N[C@@H]3CCc4cc(N5C[C@H](OC)[C@@H](N)C5)cc(F)c4C3)nnc21 [Example 139, N-[(2R)-6-[(3S,4S)-3-amino-4-methoxypyrrolidin-1-yl]-8-fluoro-1,2,3,4-tetrahydronaphthalen-2-yl]-7-ethyl-7H-pyrrolo[2,3-c]pyridazine-3-carboxamide] | > 2 |
| Cc1ccc2c(N)c(C(=O)N[C@H]3COc4cc(N5C[C@H](OC6CC6)[C@@H](N)C5)ccc4C3)sc2n1 [Example 140, 3-amino-N-[(3R)-7-[(3S,4S)-3-amino-4-cyclopropoxypyrrolidin-1-yl]-3,4-dihydro-2H-1-benzopyran-3-yl]-6-methylthieno[2,3-b]pyridine-2-carboxamide] | 0.2 to 2 |
| Cc1ccc2c(N)c(C(=O)N[C@H]3COc4cc(N5C[C@H](OC6CCC6)[C@@H](N)C5)ccc4C3)sc2n1 [Example 141, 3-amino-N-[(3R)-7-[(3S,4S)-3-amino-4-cyclobutoxypyrrolidin-1-yl]-3,4-dihydro-2H-1-benzopyran-3-yl]-6-methylthieno[2,3-b]pyridine-2-carboxamide] | 0.05 to 0.2 |
| CCO[C@H]1CN(c2ccc3c(n2)CC[C@H](NC(=O)c2sc4nc(C)ccc4c2N)C3)C[C@@H]1N [Example 142, 3-amino-N-[(6S)-2-[(3S,4S)-3-amino-4-ethoxypyrrolidin-1-yl]-5,6,7,8-tetrahydroquinolin-6-yl]-6-methylthieno[2,3-b]pyridine-2-carboxamide] | > 2 |
| CO[C@@H]1CN(c2ccc3c(c2)CC[C@H](NC(=O)c2sc4nc(C)ccc4c2N)C3)C[C@@H]1N [Example 143, 3-amino-N-[(2S)-6-[(3S,4R)-3-amino-4-methoxypyrrolidin-1-yl]-1,2,3,4-tetrahydronaphthalen-2-yl]-6-methylthieno[2,3-b]pyridine-2-carboxamide] | 0.2 to 2 |
| CO[C@@H]1CN(c2cc(F)c3c(c2)OC[C@H](NC(=O)c2sc4nc(C)ccc4c2N)C3)C[C@@H]1N [Example 145, 3-amino-N-[(3R)-7-[(3S,4R)-3-amino-4-methoxypyrrolidin-1-yl]-5-fluoro-3,4-dihydro-2H-1-benzopyran-3-yl]-6-methylthieno[2,3-b]pyridine-2-carboxamide] | 0.2 to 2 |
| CO[C@H]1CN(c2cc(F)c3c(c2)OC[C@H](NC(=O)c2sc4nc(C)ccc4c2N)C3)C[C@H]1N [Example 146] | 0.2 to 2 |
| CO[C@H]1CN(c2ccc3c(c2)OC[C@H](NC(=O)c2sc4nc(C)cnc4c2N)C3)C[C@H]1N [Example 148, 7-amino-N-[(3R)-7-[(3R,4S)-3-amino-4-methoxypyrrolidin-1-yl]-3,4-dihydro-2H-1-benzopyran-3-yl]-3-methylthieno[2,3-b]pyrazine-6-carboxamide] | 0.2 to 2 |
| CO[C@@H]1CN(c2ccc3c(c2)OC[C@H](NC(=O)c2sc4nc(C)sc4c2N)C3)C[C@@H]1N [Example 149, 6-amino-N-[(3R)-7-[(3S,4R)-3-amino-4-methoxypyrrolidin-1-yl]-3,4-dihydro-2H-1-benzopyran-3-yl]-2-methylthieno[2,3-d][1,3]thiazole-5-carboxamide] | 0.2 to 2 |
| CO[C@H]1CN(c2ccc3c(c2)OC[C@H](NC(=O)c2sc4nc(C)sc4c2N)C3)C[C@H]1N [Example 150] | 0.2 to 2 |
| CCO[C@@H]1CN(c2ccc3c(c2)OC[C@H](NC(=O)c2sc4nc(C)ccc4c2N)C3)C[C@@H]1N [Example 151, 3-amino-N-[(3R)-7-[(3S,4R)-3-amino-4-ethoxypyrrolidin-1-yl]-3,4-dihydro-2H-1-benzopyran-3-yl]-6-methylthieno[2,3-b]pyridine-2-carboxamide] | 0.2 to 2 |
| CCO[C@H]1CN(c2ccc3c(c2)OC[C@H](NC(=O)c2sc4nc(C)ccc4c2N)C3)C[C@H]1N [Example 152] | 0.2 to 2 |
| Cc1ccc2c(N)c(C(=O)N[C@H]3COc4cc(N5C[C@@H]6NCCO[C@@H]6C5)ccc4C3)sc2n1 [Example 153, N-[(3R)-7-[(4aS,7aR)-octahydropyrrolo[3,4-b]morpholin-6-yl]-3,4-dihydro-2H-1-benzopyran-3-yl]-3-amino-6-methylthieno[2,3-b]pyridine-2-carboxamide] | 0.2 to 2 |
| Cc1ccc2c(N)c(C(=O)N[C@H]3COc4cc(N5C[C@@H]6OCCN[C@@H]6C5)ccc4C3)sc2n1 [Example 154, N-[(3R)-7-[(4aR,7aS)-octahydropyrrolo[3,4-b]morpholin-6-yl]-3,4-dihydro-2H-1-benzopyran-3-yl]-3-amino-6-methylthieno[2,3-b]pyridine-2-carboxamide] | 0.2 to 2 |
| COC[C@@H]1CNCCN1c1ccc2c(c1)OC[C@H](NC(=O)c1sc3nc(C)ccc3c1N)C2 [Example 155, 3-amino-N-[(3R)-7-[(2S)-2-(methoxymethyl)piperazin-1-yl]-3,4-dihydro-2H-1-benzopyran-3-yl]-6-methylthieno[2,3-b]pyridine-2-carboxamide] | 0.05 to 0.2 |
| COC[C@H]1CNCCN1c1ccc2c(c1)OC[C@H](NC(=O)c1sc3nc(C)ccc3c1N)C2 [Example 156, 3-amino-N-[(3R)-7-[(21)-2-(methoxymethyl)piperazin-1-yl]-3,4-dihydro-2H-1-benzopyran-3-yl]-6-methylthieno[2,3-b]pyridine-2-carboxamide] | 0.2 to 2 |
| COC[C@H]1CN(c2ccc3c(c2)OC[C@H](NC(=O)c2sc4nc(C)ccc4c2N)C3)CCN1 [Example 157, 3-amino-N-[(3R)-7-[(3R)-3-(methoxymethyl)piperazin-1-yl]-3,4-dihydro-2H-1-benzopyran-3-yl]-6-methylthieno[2,3-b]pyridine-2-carboxamide] | 0.2 to 2 |
| COC[C@@H]1CN(c2ccc3c(c2)OC[C@H](NC(=O)c2sc4nc(C)ccc4c2N)C3)CCN1 [Example 158, 3-amino-N-[(3R)-7-[(3S)-3-(methoxymethyl)piperazin-1-yl]-3,4-dihydro-2H-1-benzopyran-3-yl]-6-methylthieno[2,3-b]pyridine-2-carboxamide] | 0.2 to 2 |
| Cc1cc(C)c2c(N)c(C(=O)N[C@H]3COc4cc(N5CCNCC5)c(F)c(F)c4C3)sc2n1 [Example 159, 3-amino-N-[(3R)-5,6-difluoro-7-(piperazin-1-yl)-3,4-dihydro-2H-1-benzopyran-3-yl]-4,6-dimethylthieno[2,3-b]pyridine-2-carboxamide] | > 2 |
| Cc1cc(C)c2c(N)c(C(=O)N[C@@H]3COc4cc(N5CCNCC5)c(F)c(F)c4C3)sc2n1 [Example 160, 3-amino-N-[(3S)-5,6-difluoro-7-(piperazin-1-yl)-3,4-dihydro-2H-1-benzopyran-3-yl]-4,6-dimethylthieno[2,3-b]pyridine-2-carboxamide] | 0.2 to 2 |
| COC[C@@H]1CN(c2ccc3c(c2)OC[C@H](NC(=O)c2sc4nc(C)ccc4c2N)C3)C[C@@H]1N [Example 161, 3-amino-N-[(3R)-7-[(3R,4R)-3-amino-4(methoxymethyl)pyrrolidin-1-yl]-3,4-dihydro-2H-1-benzopyran-3-yl]-6-methylthieno[2,3-b]pyridine-2-carboxamide] | 0.2 to 2 |
| COC[C@H]1CN(c2ccc3c(c2)OC[C@H](NC(=O)c2sc4nc(C)ccc4c2N)C3)C[C@H]1N [Example 162, 3-amino-N-[(3R)-7-[(3S,4S)-3-amino-4-(methoxymethyl)pyrrolidin-1-yl]-3,4-dihydro-2H-1-benzopyran-3-yl]-6-methylthieno[2,3-b]pyridine-2-carboxamide] | 0.05 to 0.2 |
| COC[C@@H]1CN(c2ccc3c(c2)OC[C@H](NC(=O)c2sc4nc(C)ccc4c2N)C3)C[C@H]1N [Example 163, 3-amino-N-[(3R)-7-[(3S,4R)-3-amino-4-(methoxymethyl)pyrrolidin-1-yl]-3,4-dihydro-2H-1-benzopyran-3-yl]-6-methylthieno[2,3-b]pyridine-2-carboxamide] | 0.2 to 2 |

— patent publication US11524966B1 (Valo Early Discovery, Inc., priority 2017, dated 2022)
